From patent publication US20110117055A1, “Methods of Treating Hepatitis C Virus with Oxoacetamide Compounds” (priority 2009, published 2011)

How the values were obtained:
[1] = test system: HCV2aCh (E2:G451R) mutant virus; assay: E2:G451R mutant virus, Taqman assay for viral RNA copies; assay type: cell-based, HCV genotype 2a; settings: 0-500 nM; about 27.5 hours after virus exposure
Method: Two 24-well plates were seeded with 4×10^4 cells/well. The following day, cell culture supernatant was aspirated and cells were exposed to HCV2aCh wild type (black bars) and HCV2aCh (E2:G451R) mutant (blue bars), Approximately 250 μl of cell culture virus was added to each well (˜1×10^4 TCID/well or moi ˜0.25). Immediately after the addition of virus to the well, 2.5 μl of 100× concentration of compound was added to each well—and mixed multiple times with a 100 ul pipet tip—to achieve final compound dilutions: 0 nM, 5 nM, 15 nM, 50 nM, 150 nM, and 500 nM. Compound 5 was tested. Each plate was processed consecutively. After addition of virus and compound the plates were placed in the incubator for ˜3.5 hours (37° C., 5% CO2). Following incubation, the supernatant was replaced with fresh media (˜1 ml/well) and plates were returned to incubator. Twenty-four hours later (˜27.5 hours following virus exposure to the cells), cells were washed once with 1 ml of PBS and then the cells were processed for Taqman analysis.

HCV [2] = assay: Combination of viral entry inhibitor with HCV protease inhibitor VX-950; assay type: cell-based; settings: fixed ratio based on EC50
Method: Additional combination studies of Compound 1 and Compound 5 with the HCV NS3 protease inhibitor VX-950 were conducted. Compound 1 and Compound 5 were tested singly and in combination with VX-950. The ratio of the two compounds, based on the compound's EC50, remained fixed across the dosing range. The potential cytotoxicity of individual compounds was assessed with a luminescent ATP-based cell viability assay (Cell Titer-Glo; Promega). Cell culture and luciferase compound assays were performed as previously described in Example 3.
Compound interactions were quantified by the approach described by Chou and Talalay, relying on the median effect principle and the multiple-drug effect equation. […] Isobolograms were generated for each combination tested and were used to determine the additivity, synergism or antagonism of inhibitor combinations. Combination indices (CI) were determined with Calcusyn (Biosoft) for each experiment at the EC50, EC75, and EC90 of the combination. By convention, a CI of <0.9 was considered synergistic, a CI of ≧0.9 or ≦1.1 was considered additive, and a CI of >1.1 was deemed antagonistic. […] Combination indices (CI) were determined with Calcusyn (Biosoft) for each experiment at the EC50, EC75, and EC90 of the combination. By convention, a CI of <0.9 was considered synergistic, a CI of ≧0.9 or ≦1.1 was considered additive, and a CI of >1.1 was deemed antagonistic.

SR-B1 pathway = settings: human subjects; cited from earlier work
Jc1-luc virus = assay: Luciferase compound activity assay, Jc1-luc virus in Huh7.5.1 cells; assay type: cell-based, HCV genotype-2a; settings: Hepatitis C virus, Huh-7.5.1
Method: Cell culture. Human hepatoma Huh-7.5.1 cells or Huh7 cells were grown at 37° C. and 5% CO2 in Dulbecco's modification of Eagle's medium supplemented with 2 mM L-glutamine, 1 mM Sodium pyruvate, 1× Non-essential amino acids mix, 100 units/ml penicillin, 100 μg/ml streptomycin, and 10% fetal bovine serum.
Virus plasmids. The chimeric full-length construct pFL-JC1, a GT2a/2a chimera consisting of structural genes from the J6CF isolate and non-structural genes from the JFH1 isolate, has been described previously. See Backes et al., J. Virol. 2010, 84:5775-89; Schaller et al., J. Virol., 2007, 81:4591-603; Koutsoudakis et al., J. Virol. 2006, 80:5308-20; Pietschmann et al., Proc. Natl. Acad. Sci., 2006, 103:7408-13. The firefly luciferase gene has been inserted to pFL-Jc1 to develop a plamid pFL-Jc1-luc for use as a reporter of viral replication. See Amako et al., J. Virol. 2009, 83:9237-46. Specifically, the pFL-JC1-luc construct can be utilized to develop an infectious HCV cell culture system to test novel HCV inhibitors, including entry inhibitors, in vitro using luciferase expression.
Preparation of infectious HCV. Jc1-luc or HCV2a/2aChRluc RNA was in vitro transcribed using T7 RiboMAX™ Express Large Scale RNA Production System (Promega). After RNA clean up (Qiagen RNeasy Mini kit), transfection was performed as previously described.
400 microliters of a Huh-7.5.1 or Huh7 cell suspension (10^7 cells/ml) was placed in a 0.4-cm cuvette with 10 μg of Jc1-luc or HCV2a/2aChRluc RNA and electroporated (Bio-Rad Gene Pulser System) using a single square wave at 260 V and 25 ms pulse length. The cells were plated in 15-cm tissue culture dishes (Corning) and supernatant was harvested and concentrated using a centrifugal filter (Amicon 100K, Millipore).
Luciferase compound activity assay. Cell culture and luciferase compound assays were performed as previously described. See Wyles et al., J. Virol. 2007, 81:3005-8; Wyles et al., Antimicrob Agents Chemother. 2009, 53:2660-2; Grünberger et al., J. Infect. Dis. 2008, 197:42-5; Wyles et al., Antimicrob Agents Chemother, 2008, 52:1862-4. Briefly, Huh7.5.1 cells were seeded into 96-well plates at a density of 10,000 cells per well in 100 μl medium. After incubating overnight for attachment, Jc1-luc virus at an MOI 0.01 was added to wells with or without compounds at the specified concentrations. All conditions were run in triplicate. After 24 hours, medium was aspirated and replaced with 100 μl of complete medium containing an identical concentration of compound(s) followed by additional 48 hour incubation. The luciferase assay (Bright-Glo; Promega) was carried out according to the manufacturer's instructions. Luciferase activity was determined using a microplate luminometer (Veritas microplate luminometer; Turner Biosystems). […]

HCV2a/2aChRluc virus = assay: Compound 5 with ribavirin or VX950 in the HCV2a/2aChRluc system; assay type: cell-based, HCV genotype 2a
Method: 100 μl of serially diluted compound solutions (100, 30, 10, 3, 1, 0.3, and 0.1 nM) was inoculated onto Huh-7 cells in a 96-well plate. Subsequently, 100 ul (TCID50, ˜0.6) of HCV2a/2aChRluc virus was added onto the cells. After co-incubation for 72 hrs, Renilla luciferase expression was determined (Renilla Luciferase Assay, Promega) and reported as relative light units (RLU).
Data analysis. Determinations of compound interactions were quantified based on the median-effect principle described by Chou and Talalay. Chou T., Talalay P., Adv. Enzyme. Regul., 1984, 22:27-55. Combination indices (CIs) were determined using Calcusyn (Biosoft) for each experiment at the EC50, EC75, and EC90 levels. Five replicates per condition were evaluated. A CI<0.9 was considered synergistic, a CI≧0.9 and ≦[…] was considered additive, and a CI>1.1 was deemed antagonistic.

HCV [3] = assay: Combination of viral entry inhibitor with IFN-α, HCVcc infection system, luciferase assay; assay type: cell-based; settings: Huh7 cells, 72 hrs
Method: The current standard of care for the treatment of chronic hepatitis C is the combination of pegylated IFN-α (interferon-alpha) and ribavirin. […] Huh7 cells were incubated with various concentrations of Compound 1 or interferon alone, or combinations of both for 72 hrs, and the anti-HCV activity was measured by luciferase assays. The same was experiment was performed for Compound 5.

[4] = Cytotoxicity of anti-HCV compounds (CC50, Table 4); settings: human, Huh7.5.1 cells

In the case of `COc1c(NC(=O)C(=O)c2ccc(OCCN3CCOCC3)c3ccccc23)cc(C(C)(C)C)cc1NS(C)(=O)=O` [Compound 5, N-(5-tert-butyl-2-methoxy-3-(methylsulfonamido)phenyl)-2-(4-(2-morpholinoethoxy)naphthalen-1-yl)-2-oxoacetamide], the “sensitivity of E2 mutant virus relative to wild-type virus, Taqman assay for viral RNA copies” value [1] is listed as “greater resistance”, the “effect of combination with VX-950” value (HCV [2]) is listed as “additive to slightly synergistic effects” and the HDL levels (SR-B1 pathway) is listed as “raised HDL levels”. The EC50 (Jc1-luc virus) was 20.2 ± 1.37 nM, the “interaction with VX-950” value (HCV2a/2aChRluc virus; HCV2a/2aCHRLuc system) was “consistent synergy” and the “effect of combination with ribavirin” value (HCV2a/2aChRluc virus; ribavirin 15 μM) was “no antagonistic effect”. For the same compound, the “effect of combination with IFN-α on inhibition of HCV infection in cell culture” value (HCV [3]) was “additive to moderate synergistic effect” and the CC50 [4] was > 100000 nM.
